Data from PMC11100219, “Dual-function antimicrobial-antibiofilm peptide hybrid to tackle biofilm-forming Staphylococcus epidermidis” (Annals of Clinical Microbiology and Antimicrobials, 2024).
Residues, ends and D or L forms follow the SMILES beside them.

Tested on: S. epidermidis (ATCC 35984) biofilm
Assay: Biofilm-formation inhibitory activity, crystal violet staining
Assay type: cell-based, Staphylococcus epidermidis
Conditions: CV staining, TSB, 10^6 CFU/mL, 24 h, 37°C, 0.98-250 µg/mL
Experimental: The biofilm inhibitory activity of peptide derivatives was assessed by modified crystal violet (CV) staining. Briefly, the pellet of S. epidermidis (ATCC 35984) was collected through centrifugation of bacterial suspensions grown overnight at 2,500 × g for 5 min. Subsequently, the pellet was resuspended and diluted with TSB to a final concentration of 10^6 CFU/mL. Then, 50 µL of these diluted suspensions was transferred to 96-well microplates containing same volume of peptide derivatives in 10 mM phosphate buffer saline (PBS; Caisson Labs, USA), with concentrations ranging from 0.98 to 250 µg/mL. Vancomycin was used as positive control while TSB medium without bacteria was used as negative control. After 24 h of incubation and reaching static growth at 37°C, culture media as well as planktonic cells were removed, then the biofilm in each well was washed thrice with 0.85% NaCl. For CV staining, biofilms were fixed with 95% ethanol and stained with a 0.1% (v/v) CV solution for 15 min. After removal of excess dye, each well was washed thrice with 0.85% NaCl and resuspended in 95% ethanol to dissolve bound dye. Absorbance was determined at 570 nm using a Multiskan SkyHigh microplate reader (Thermo Scientific™, Singapore). All experiments were done in six technical replicates and repeated independently three times. Minimum biofilm inhibitory concentrations at 50% and 90% (MBIC50 and MBIC90) refers to concentrations of the peptide at which the inhibition of biofilm was at least 50% and 90%, respectively.

Compound `CC[C@H](C)[C@H](NC(=O)[C@H](CCCCN)NC(=O)[C@H](CCCCN)NC(=O)[C@@H](NC(=O)[C@H](CC(C)C)NC(=O)[C@@H](N)Cc1ccccc1)C(C)C)C(=O)N[C@@H](CCCCN)C(=O)N[C@@H](CCCCN)C(=O)N[C@H](C(=O)N[C@@H](CC(C)C)C(=O)N[C@@H](CCCNC(=N)N)C(=O)N[C@@H](CCCNC(=N)N)C(N)=O)[C@@H](C)CC` [BiF2_5K7K] (H-FLVKKIKKILRR-NH2; N-terminus assumed) has an MBIC50 (minimum concentration inhibiting biofilm formation more than 50%) of 7.81 µg/mL and an MBIC90 (minimum concentration inhibiting biofilm formation more than 90%) of 31.25 µg/mL.
